Experimental data as given in ChEMBL document CHEMBL3046603, “Synthesis and antibacterial, antifungal activities of some 2r,4c-diaryl-3-azabicyclo[3.3.1]nonan-9-one-4-aminobenzoyl hydrazones” (2012).
Converted amounts (≈) assume the structure as drawn. The source made the active and inactive calls. The rule behind the calls is not given here.

Key:
Cryptococcus neoformans [1] = assay: Antifungal activity against Cryptococcus neoformans after 72 to 96 hr by two-fold serial dilution method; type: functional
Aspergillus niger = assay: Antifungal activity against Aspergillus niger after 72 to 96 hr by two-fold serial dilution method; type: functional
Aspergillus flavus = assay: Antifungal activity against Aspergillus flavus after 72 to 96 hr by two-fold serial dilution method; type: functional
Fusarium oxysporum = assay: Antifungal activity against Fusarium oxysporum after 72 to 96 hr by two-fold serial dilution method; type: functional
Candida albicans = assay: Antifungal activity against Candida albicans two-fold serial dilution method; type: functional
Staphylococcus aureus = assay: Antibacterial activity against Staphylococcus aureus MTCC 96 after 24 hr two-fold serial dilution method; type: functional; conditions: MTCC 96, 24 h
Bacillus subtilis = assay: Antibacterial activity against Bacillus subtilis MTCC 121 after 24 hr two-fold serial dilution method; type: functional; conditions: MTCC 121, 24 h
Klebsiella pneumoniae = assay: Antibacterial activity against Klebsiella pneumoniae MTCC 2272 after 24 hr two-fold serial dilution method; type: functional; conditions: MTCC 2272, 24 h
Pseudomonas aeruginosa = assay: Antibacterial activity against Pseudomonas aeruginosa MTCC 741 after 24 hr two-fold serial dilution method; type: functional; conditions: MTCC 741, 24 h
Salmonella typhi = assay: Antibacterial activity against Salmonella enterica subsp. enterica serovar Typhi MTCC 531 after 24 hr two-fold serial dilution method; type: functional; conditions: MTCC 531, 24 h
Vibrio cholerae = assay: Antibacterial activity against Vibrio cholerae after 24 hr two-fold serial dilution method; type: functional
Escherichia coli = assay: Antibacterial activity against Escherichia coli MTCC 443 after 24 hr two-fold serial dilution method; type: functional; conditions: MTCC 443, 24 h
Salmonella typhimurium = assay: Antibacterial activity against Salmonella enterica subsp. enterica serovar Typhimurium MTCC 98 after 24 hr two-fold serial dilution method; type: functional; conditions: MTCC 98, 24 h
Cryptococcus neoformans [2] = assay: Antifungal activity against Cryptococcus neoformans at 200 ug/ml after 72 to 96 hr by two-fold serial dilution method; type: functional, organism-based

SMILES	MIC (Cryptococcus neoformans [1])	MIC (Aspergillus niger)	MIC (Aspergillus flavus)	MIC (Fusarium oxysporum)	MIC (Candida albicans)	MIC (Staphylococcus aureus)	MIC (Bacillus subtilis)	MIC (Klebsiella pneumoniae)	MIC (Pseudomonas aeruginosa)	MIC (Salmonella typhi)	MIC (Vibrio cholerae)	MIC (Escherichia coli)	MIC (Salmonella typhimurium)	Activity (Cryptococcus neoformans [2])
Nc1ccc(C(=O)NN=C2C3CCCC2C(c2ccc(F)cc2)NC3c2ccc(F)cc2)cc1 (configuration not stated)	200 µg/mL (≈ 434 µM)	100 µg/mL (≈ 217 µM)	200 µg/mL (≈ 434 µM)	50 µg/mL (≈ 109 µM)	100 µg/mL (≈ 217 µM)	50 µg/mL (≈ 109 µM)	25 µg/mL (≈ 54.3 µM)	50 µg/mL (≈ 109 µM)	200 µg/mL (≈ 434 µM)	100 µg/mL (≈ 217 µM)	50 µg/mL (≈ 109 µM)	100 µg/mL (≈ 217 µM)	100 µg/mL (≈ 217 µM)	
Nc1ccc(C(=O)NN=C2C3CCCC2C(c2ccc(Br)cc2)NC3c2ccc(Br)cc2)cc1 (configuration not stated)	100 µg/mL (≈ 172 µM)	50 µg/mL (≈ 85.9 µM)	100 µg/mL (≈ 172 µM)	100 µg/mL (≈ 172 µM)	200 µg/mL (≈ 343 µM)	50 µg/mL (≈ 85.9 µM)	200 µg/mL (≈ 343 µM)	200 µg/mL (≈ 343 µM)	50 µg/mL (≈ 85.9 µM)	50 µg/mL (≈ 85.9 µM)	200 µg/mL (≈ 343 µM)	100 µg/mL (≈ 172 µM)	200 µg/mL (≈ 343 µM)	
Nc1ccc(C(=O)NN=C2C3CCCC2C(c2ccccc2)NC3c2ccccc2)cc1 (configuration not stated)			200 µg/mL (≈ 471 µM)	200 µg/mL (≈ 471 µM)		200 µg/mL (≈ 471 µM)	100 µg/mL (≈ 236 µM)	50 µg/mL (≈ 118 µM)	200 µg/mL (≈ 471 µM)	200 µg/mL (≈ 471 µM)	100 µg/mL (≈ 236 µM)	200 µg/mL (≈ 471 µM)	200 µg/mL (≈ 471 µM)	inactive
Nc1ccc(C(=O)NN=C2C3CCCC2C(c2ccc(Cl)cc2)NC3c2ccc(Cl)cc2)cc1 (configuration not stated)	200 µg/mL (≈ 405 µM)	50 µg/mL (≈ 101 µM)	100 µg/mL (≈ 203 µM)	200 µg/mL (≈ 405 µM)	100 µg/mL (≈ 203 µM)	50 µg/mL (≈ 101 µM)	50 µg/mL (≈ 101 µM)	200 µg/mL (≈ 405 µM)	100 µg/mL (≈ 203 µM)	200 µg/mL (≈ 405 µM)	100 µg/mL (≈ 203 µM)	50 µg/mL (≈ 101 µM)	200 µg/mL (≈ 405 µM)	
Cc1ccc(C2NC(c3ccc(C)cc3)C3CCCC2C3=NNC(=O)c2ccc(N)cc2)cc1 (configuration not stated)	100 µg/mL (≈ 221 µM)	100 µg/mL (≈ 221 µM)	200 µg/mL (≈ 442 µM)	100 µg/mL (≈ 221 µM)	200 µg/mL (≈ 442 µM)	200 µg/mL (≈ 442 µM)	100 µg/mL (≈ 221 µM)	200 µg/mL (≈ 442 µM)	200 µg/mL (≈ 442 µM)	100 µg/mL (≈ 221 µM)	200 µg/mL (≈ 442 µM)	100 µg/mL (≈ 221 µM)	200 µg/mL (≈ 442 µM)	
CN[C@@H]1[C@H](O[C@H]2[C@H](O[C@H]3[C@H](O)[C@@H](O)[C@H](N=C(N)N)[C@@H](O)[C@@H]3N=C(N)N)O[C@@H](C)[C@]2(O)C=O)O[C@@H](CO)[C@H](O)[C@H]1O [STREPTOMYCIN]						25 µg/mL (≈ 43 µM)	12.5 µg/mL (≈ 21.5 µM)	20 µg/mL (≈ 34.4 µM)	50 µg/mL (≈ 86 µM)	25 µg/mL (≈ 43 µM)	50 µg/mL (≈ 86 µM)	50 µg/mL (≈ 86 µM)	25 µg/mL (≈ 43 µM)	
Nc1ccc(C(=O)NN=C2C3CCCC2C(c2ccccc2Cl)NC3c2ccccc2Cl)cc1 (configuration not stated)	100 µg/mL (≈ 203 µM)	100 µg/mL (≈ 203 µM)	200 µg/mL (≈ 405 µM)	100 µg/mL (≈ 203 µM)	200 µg/mL (≈ 405 µM)	200 µg/mL (≈ 405 µM)	200 µg/mL (≈ 405 µM)	50 µg/mL (≈ 101 µM)	100 µg/mL (≈ 203 µM)	100 µg/mL (≈ 203 µM)	50 µg/mL (≈ 101 µM)	100 µg/mL (≈ 203 µM)	50 µg/mL (≈ 101 µM)	
COc1ccc(C2NC(c3ccc(OC)cc3)C3CCCC2C3=NNC(=O)c2ccc(N)cc2)cc1 (configuration not stated)	200 µg/mL (≈ 413 µM)	100 µg/mL (≈ 206 µM)	50 µg/mL (≈ 103 µM)	100 µg/mL (≈ 206 µM)	200 µg/mL (≈ 413 µM)	100 µg/mL (≈ 206 µM)	100 µg/mL (≈ 206 µM)	200 µg/mL (≈ 413 µM)	200 µg/mL (≈ 413 µM)	100 µg/mL (≈ 206 µM)	50 µg/mL (≈ 103 µM)	100 µg/mL (≈ 206 µM)	200 µg/mL (≈ 413 µM)	
C[C@@H]1[C@H](O)[C@@H](C)/C=C/C=C/C=C/C=C/C=C/C=C/C=C/[C@H](O[C@@H]2O[C@H](C)[C@@H](O)[C@H](N)[C@@H]2O)C[C@@H]2O[C@](O)(C[C@@H](O)C[C@@H](O)[C@H](O)CC[C@@H](O)C[C@@H](O)CC(=O)O[C@H]1C)C[C@H](O)[C@H]2C(=O)O [AMPHOTERICIN B]	25 µg/mL (≈ 27.1 µM)	50 µg/mL (≈ 54.1 µM)	50 µg/mL (≈ 54.1 µM)	25 µg/mL (≈ 27.1 µM)	25 µg/mL (≈ 27.1 µM)									
